Earlier results in patent publication US20260297123A1, “METHODS FOR THE SYNTHESIS OF NUCLEOSIDE ANALOGUES AND NUCLEOSIDES ANALOGUES DERIVED THEREFROM” (SIMON FRASER UNIVERSITY, priority 2023, published 2026).
Like-named read-outs stand apart in the source and are kept apart here.

Conditions: for pKa, H2O: values <0 and >14 extrapolated; for pKa, H2O (first of several listed) / pKa, (DMSO) (first of several listed): first value listed; for pKa, H2O (second of several listed) / pKa, (DMSO) (second of several listed): second value listed
[1] = DMSO (values in parentheses), values <0 and >35 extrapolated

Row | Compound | pKa, (DMSO) [1] | pKa, H2O (H2O) | also measured
1 | ON=C(c1ccccc1)c1ccccc1 | – | 11.3 | –
2 | O=C(NO)c1ccccc1 | (13.7) | – | pKa, H2O (NH) (H2O, NH): 8.88 (NH)
3 | CN(O)C(=O)c1ccccc1 | (16.5) | – | –
4 | NCCN | – | – | pKa, H2O (first of several listed) (H2O): 6.90; pKa, H2O (second of several listed) (H2O): 9.95
5 | CCC(=O)Nc1ccccc1 | – | – | pKa, (DMSO) (dmso): (21.6)
6 | O=C1CCCN1 | – | 12 | –
7 | O=C1NC(=O)c2ccccc21 | – | 6.30 | –
8 | CN(C)C(=N)N(C)C | (13.5) | – | –
9 | NNC(=O)c1ccccc1 | (18.9) | – | –
10 | C1=Cc2ccccc2C1 | – | 20 | –
11 | CCC(=O)CC | – | 19-20 | –
12 | CC(=O)C(C)(C)C | – | – | pKa, (DMSO) (dmso): (27.7)
13 | C[S+](Cc1ccccc1)c1ccccc1 (centres unmarked) | – | – | pKa, (DMSO) (first of several listed): 16.2; pKa, (DMSO) (second of several listed): 16.3
14 | Nc1ccc2ccccc2c1 [2-naphthal-N^+H3] | – | 4.16 | –
15 | OB(O)O [B(OH)3] | – | 9.23 | –
16 | CCCCS [BuSH] | (17.0) | 10-11 | –
17 | OCC(F)(F)F [CF3CH2OH] | – | 12.5 | –
18 | O=S(=O)(O)C(F)(F)F [CF3SO3H] | (0.3) | – | –
19 | CC(=O)OO [CH3CO3H] | – | 8.2 | –
20 | C1CN2CCN1CC2 [DABCO] | – | – | pKa, (DMSO) (first of several listed): 2.97; pKa, (DMSO) (second of several listed): 8.93; pKa, H2O (first of several listed) (H2O): 2.97; pKa, H2O (second of several listed) (H2O): 8.82
21 | C1CCC2=NCCCN2CC1 [DBU] | – | – | pKa, (DMSO) (dmso): (12) (estimate)

Row | Compound | pKa, (DMSO) [1] | pKa, H2O (H2O) | also measured
22 | CN(C)c1ccncc1 [DMAP] | – | 9.2 | –
23 | CCP(CC)CC [Et3P^+H] | – | 9.1 | –
24 | [O]=[Cr](=[O])([OH])[OH] [H2CrO4] | – | – | pKa, H2O (first of several listed) (H2O): −0.98; pKa, H2O (second of several listed) (H2O): 6.50
25 | O=S(O)O [H2SO3] | – | – | pKa, H2O (first of several listed) (H2O): 1.9; pKa, H2O (second of several listed) (H2O): 7.21
26 | F [HF] | (15) | 3.17 | –
27 | O=NO [HNO2] | – | 3.29 | –
28 | O=[N+]([O-])O [HNO3] | – | −1.3 | –
29 | OCl [HOCl] | – | 7.5 | –
30 | OO [HOOH] | – | 11.6 | –
31 | N#CS [HSCN] | – | 4.00 | –
32 | CO [MeOH] | – | 15.54 | –
33 | COO [MeOOH] | – | 11.5 | –
34 | N#CN [NCNH2] | (16.9) | – | –
35 | c1ccc(Nc2ccccc2)cc1 [Ph2N^+H2] | – | 0.78 | –
36 | CN(C)c1ccccc1 [PhN^+(Me)2H] | (2.50) | 5.20 | –
37 | CN(C)c1cccc2cccc(N(C)C)c12 [Proton Spong ?] | – | – | pKa, (DMSO) (second of several listed): 7.50; pKa, H2O (second of several listed) (H2O): 12.0
38 | CC[N+](=O)[O-] [RNO2, R = CH2Me] | (16.7) | – | –
39 | O=[N+]([O-])Cc1ccccc1 [RNO2, R = CH2Ph] | (12.2) | – | –
40 | C[N+](=O)[O-] [RNO2, R = CH3] | (17.2) | – | –
41 | CC(C)[N+](=O)[O-] [RNO2, R = CHMe2] | (16.9) | – | –
42 | O=C(O)C(Cl)(Cl)Cl [drawing 16, X = CCl3] | – | 0.65 | –

Row | Compound | pKa, (DMSO) [1] | pKa, H2O (H2O) | also measured
43 | O=C(O)C(F)(F)F [drawing 16, X = CF3] | – | −0.25 | –
44 | O=C(O)C[N+](=O)[O-] [drawing 16, X = CH2NO2] | – | 1.68 | –
45 | O=C(O)O [drawing 16, X = HO] | – | – | pKa, H2O (first of several listed) (H2O): 3.6
46 | O=C(O)c1cccc(Cl)c1 [drawing 16, X = m-ClC6H4] | – | 3.83 | –
47 | O=C(O)c1cccc([N+](=O)[O-])c1 [drawing 16, X = m-O2NC6H4] | – | 2.45 | –
48 | C[N+](C)(C)c1ccccc1C(=O)O [drawing 16, X = o-(CH3)3N^+C6H4] | – | 1.37 | –
49 | C[N+](C)(C)c1ccc(C(=O)O)cc1 [drawing 16, X = p-(CH3)3N^+C6H4] | – | 3.43 | –
50 | O=C(O)c1ccc([N+](=O)[O-])cc1 [drawing 16, X = p-O2NC6H4] | – | 3.44 | –
51 | C=CC(=O)O [drawing 17, R = H] | – | 4.25 | –
52 | NC(=O)C(F)(F)F [drawing 41, R = CF3] | (17.2) | – | –
53 | CC(=O)Cc1ccccc1 [drawing 77, X = Ph] | (19.8) | – | –
54 | N#CCC(=O)c1ccccc1 [drawing 82, X = CN] | (10.2) | – | –
55 | O=C(Cc1ccccc1)c1ccccc1 [drawing 82, X = Ph] | (17.7) | – | –
56 | O=C(C[Se]c1ccccc1)c1ccccc1 [drawing 82, X = SePh] | (18.6) | – | –
57 | CC(C)O [i-PrOH] | – | 16.5 | –
58 | O=[N+]([O-])c1cccc(O)c1 [m-C2NC6H4OH] | – | 8.35 | –
59 | O=[N+]([O-])c1ccc(O)cc1 [p-O2NC6H4OH] | (10.8) | 7.14 | –
60 | COc1ccc(O)cc1 [p-OMeC6H4OH] | (19.1) | 10.20 | –
61 | CC(C)(C)O [t-BuOH] | – | 17 | –

Continued, in another order:

Row | pKa, (DMSO) [1] | Compound | pKa, H2O (H2O) | also measured
62 | (17.0) | Oc1ccccn1 | – | –
63 | (20.0) | CCOC(=O)C[N+](C)(C)C | – | –
64 | (14.2) | CCOC(=O)CC(C)=O | 11 | –
65 | (17.2) | N#CCC(=O)N1CCCC1 | – | –
66 | (18.8) | CS(=O)(=O)C(F)(F)F | – | –
67 | (17.1) | Oc1ccc2ccccc2c1 [2-napthol] | – | –
68 | (17.9) | OC(C(F)(F)F)C(F)(F)F [(CF3)2CHOH] | – | –
69 | (17.9) | CC(=O)NC(C)=O [Ac2NH] | – | –
70 | (9.7) | NS(=O)(=O)C(F)(F)F [CF3SO2NH2] | – | –
71 | (0.9) | Br [HBt] | – | –
72 | (17.5) | CS(N)(=O)=O [MeSO2NH2] | – | –
73 | (12.9) | CS(=O)(=O)Nc1ccccc1 [MeSO2NHPh] | – | –
74 | (7.0) | N#CC[P+](c1ccccc1)(c1ccccc1)c1ccccc1 [Ph3P^+CH2CN] | – | –
75 | (6.2) | O=C(C[P+](c1ccccc1)(c1ccccc1)c1ccccc1)c1ccccc1 [Ph3P^+CH2COPh] | – | –
76 | (11.8) | O=[N+]([O-])CSc1ccccc1 [PhSCH2X, X = NO2] | – | –
77 | (11.0) | O=S(=O)(CSc1ccccc1)C(F)(F)F [PhSCH2X, X = SO2CF3] | – | –
78 | (16.1) | NS(=O)(=O)c1ccccc1 [PhSO2NH2] | – | –

Row | pKa, (DMSO) [1] | Compound | pKa, H2O (H2O) | also measured
79 | (17.2) | NNS(=O)(=O)c1ccccc1 [PhSO2NHNH2] | – | –
80 | (16.2) | O=[N+]([O-])CCc1ccccc1 [RNO2, R = CH2Bn] | – | –
81 | (13.3) | CC(=O)CC(C)=O [drawing 77, X = COCH3] | 9 | –
82 | (15.1) | CC(=O)CS(=O)(=O)c1ccccc1 [drawing 77, X = SO2Ph] | – | –
83 | (18.7) | CC(=O)CSc1ccccc1 [drawing 77, X = SPh] | – | –
84 | (12.7) | CC(=O)CC(=O)c1ccccc1 [drawing 82, X = COCH3] | – | –
85 | (13.3) | O=C(CC(=O)c1ccccc1)c1ccccc1 [drawing 82, X = COPh] | – | –
86 | (7.7) | O=C(C[N+](=O)[O-])c1ccccc1 [drawing 82, X = NO2] | – | –
87 | (14.6) | C[N+](C)(C)CC(=O)c1ccccc1 [drawing 82, X = N^+Me3] | – | –
88 | (11.4) | O=C(CS(=O)(=O)c1ccccc1)c1ccccc1 [drawing 82, X = SO2Ph] | – | –
89 | (16.9) | O=C(CSc1ccccc1)c1ccccc1 [drawing 82, X = SPh] | – | –
90 | (19.1) | N#CC1SCCCS1 [drawing 97, X = CN] | – | –
91 | (12.0) | N#CCS(=O)(=O)c1ccccc1 [drawing 107, X = CN] | – | –
92 | (12.5) | CC(=O)CS(=O)(=O)c1ccccc1 [drawing 107, X = COMe] | – | –
93 | (7.1) | O=[N+]([O-])CS(=O)(=O)c1ccccc1 [drawing 107, X = NO2] | – | –
94 | (19.4) | C[N+](C)(C)CS(=O)(=O)c1ccccc1 [drawing 107, X = N^+Me3] | – | –
